How the values were obtained:
[1] = biological target: T1, PIK3C2B (Homo sapiens, UniProt O00750); test: KinomeScan; assay type: binding; conditions: read-out: % control
T1 construct: purchased DiscoveRx KINOMEscan

[2] = biological target: T2, ABL1-phosphorylated (Homo sapiens, UniProt P00519); test: KinomeScan; assay type: binding; conditions: read-out: % control
T2 construct: purchased DiscoveRx KINOMEscan

[3] = biological target: T3, DRAK1 (Homo sapiens, UniProt Q9UEE5); test: KinomeScan; assay type: binding; conditions: read-out: % control
T3 construct: purchased DiscoveRx KINOMEscan
T3 sequence (Q9UEE5 whole entry): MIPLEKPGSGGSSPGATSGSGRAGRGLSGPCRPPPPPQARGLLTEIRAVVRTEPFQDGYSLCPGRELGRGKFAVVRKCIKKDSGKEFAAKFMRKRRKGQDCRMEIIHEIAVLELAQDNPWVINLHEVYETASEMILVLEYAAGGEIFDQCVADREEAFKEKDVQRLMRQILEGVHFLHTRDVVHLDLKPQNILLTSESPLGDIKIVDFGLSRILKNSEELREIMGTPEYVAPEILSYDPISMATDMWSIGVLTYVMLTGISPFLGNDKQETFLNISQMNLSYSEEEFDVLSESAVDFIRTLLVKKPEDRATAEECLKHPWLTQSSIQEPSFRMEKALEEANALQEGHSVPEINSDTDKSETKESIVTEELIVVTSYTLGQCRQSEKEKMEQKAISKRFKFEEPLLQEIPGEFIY

[4] = biological target: T4, DAPK1 (Homo sapiens, UniProt P53355); test: KinomeScan; assay type: binding; conditions: read-out: % control
T4 construct: purchased DiscoveRx KINOMEscan

[5] = tested on: Parental BaF3; test: Anti-proliferation, BaF3 isogenic cell lines (CellTiter-Glo); assay type: cell-based; conditions: Mus musculus
[6] = biological target: T5, AMPK-alpha1 (Homo sapiens, UniProt Q13131); test: KinomeScan; assay type: binding; conditions: read-out: % control
T5 construct: purchased DiscoveRx KINOMEscan
T5 sequence (Q13131 whole entry): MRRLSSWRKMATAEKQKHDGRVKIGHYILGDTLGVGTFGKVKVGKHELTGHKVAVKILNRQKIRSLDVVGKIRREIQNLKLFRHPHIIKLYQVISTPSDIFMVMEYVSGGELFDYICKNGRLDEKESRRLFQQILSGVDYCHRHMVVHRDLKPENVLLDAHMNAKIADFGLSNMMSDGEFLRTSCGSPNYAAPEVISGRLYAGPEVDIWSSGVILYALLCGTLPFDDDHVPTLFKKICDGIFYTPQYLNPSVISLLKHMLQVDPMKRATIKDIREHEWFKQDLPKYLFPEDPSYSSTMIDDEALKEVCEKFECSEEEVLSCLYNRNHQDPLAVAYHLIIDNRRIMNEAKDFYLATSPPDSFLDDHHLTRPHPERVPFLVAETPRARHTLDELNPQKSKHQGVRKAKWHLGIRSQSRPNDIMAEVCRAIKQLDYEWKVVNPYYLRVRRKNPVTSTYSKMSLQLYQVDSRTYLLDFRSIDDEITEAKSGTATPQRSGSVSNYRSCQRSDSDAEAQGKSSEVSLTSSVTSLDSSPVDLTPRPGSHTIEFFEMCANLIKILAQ

[7] = biological target: T6, LRRK2 (Homo sapiens, UniProt Q5S007); test: KinomeScan; assay type: binding; conditions: read-out: % control
T6 construct: purchased DiscoveRx KINOMEscan

[8] = biological target: T7, PDGFRA (Homo sapiens, UniProt P16234); test: KinomeScan; assay type: binding; conditions: read-out: % control
T7 construct: purchased DiscoveRx KINOMEscan

[9] = biological target: T8, EGFR(S752-I759del) (Homo sapiens, UniProt P00533, DEL752-759); test: KinomeScan; assay type: binding; conditions: read-out: % control
T8 construct: purchased DiscoveRx KINOMEscan
T8 sequence (P00533 with tags, fused parts or gaps DEL752-759 limits assumed): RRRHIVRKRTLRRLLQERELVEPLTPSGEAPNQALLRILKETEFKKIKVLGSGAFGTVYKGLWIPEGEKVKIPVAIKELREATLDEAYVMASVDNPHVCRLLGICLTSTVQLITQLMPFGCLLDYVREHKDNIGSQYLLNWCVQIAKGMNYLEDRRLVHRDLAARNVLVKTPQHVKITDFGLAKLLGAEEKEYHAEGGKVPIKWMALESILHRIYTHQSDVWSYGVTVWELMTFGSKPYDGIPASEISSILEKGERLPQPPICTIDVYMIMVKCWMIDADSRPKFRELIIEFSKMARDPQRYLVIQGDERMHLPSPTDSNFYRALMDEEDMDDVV

[10] = biological target: T9, IRAK3 (Homo sapiens, UniProt Q9Y616); test: KinomeScan; assay type: binding; conditions: read-out: % control
T9 construct: purchased DiscoveRx KINOMEscan
T9 sequence (Q9Y616 whole entry): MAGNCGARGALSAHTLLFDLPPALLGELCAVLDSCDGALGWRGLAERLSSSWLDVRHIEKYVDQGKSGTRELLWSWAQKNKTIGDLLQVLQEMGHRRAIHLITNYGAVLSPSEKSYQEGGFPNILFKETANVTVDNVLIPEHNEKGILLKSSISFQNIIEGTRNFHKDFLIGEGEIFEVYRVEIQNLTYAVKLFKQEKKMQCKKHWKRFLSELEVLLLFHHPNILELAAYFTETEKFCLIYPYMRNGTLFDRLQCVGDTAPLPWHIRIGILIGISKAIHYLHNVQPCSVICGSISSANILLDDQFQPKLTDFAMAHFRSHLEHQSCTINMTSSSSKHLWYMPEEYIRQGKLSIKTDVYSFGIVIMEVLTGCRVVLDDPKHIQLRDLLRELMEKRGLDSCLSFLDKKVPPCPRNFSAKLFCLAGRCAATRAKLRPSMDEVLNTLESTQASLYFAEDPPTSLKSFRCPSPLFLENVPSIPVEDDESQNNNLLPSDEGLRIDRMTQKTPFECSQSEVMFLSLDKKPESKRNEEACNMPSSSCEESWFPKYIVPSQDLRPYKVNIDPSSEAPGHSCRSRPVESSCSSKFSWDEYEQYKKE

[11] = biological target: T10, CDK9 (Homo sapiens, UniProt P50750); test: KinomeScan; assay type: binding; conditions: read-out: % control
T10 construct: purchased DiscoveRx KINOMEscan
T10 sequence (P50750 whole entry): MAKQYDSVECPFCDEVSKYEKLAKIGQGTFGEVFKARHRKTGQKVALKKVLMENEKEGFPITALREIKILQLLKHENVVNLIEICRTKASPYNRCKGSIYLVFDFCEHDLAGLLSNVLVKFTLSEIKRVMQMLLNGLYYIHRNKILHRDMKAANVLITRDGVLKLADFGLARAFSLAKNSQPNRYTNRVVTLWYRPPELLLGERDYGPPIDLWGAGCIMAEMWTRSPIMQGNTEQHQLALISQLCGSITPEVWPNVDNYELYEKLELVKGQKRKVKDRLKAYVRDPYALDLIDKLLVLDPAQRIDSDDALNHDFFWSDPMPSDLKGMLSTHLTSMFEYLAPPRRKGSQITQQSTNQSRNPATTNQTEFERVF

[12] = biological target: T11, FLT3(K663Q) (Homo sapiens, UniProt P36888, K663Q); test: KinomeScan; assay type: binding; conditions: read-out: % control
T11 construct: purchased DiscoveRx KINOMEscan

[13] = biological target: T12, MET(Y1235D) (Homo sapiens, UniProt P08581, Y1235D); test: KinomeScan; assay type: binding; conditions: read-out: % control
T12 construct: purchased DiscoveRx KINOMEscan

[14] = biological target: T13, ASK1 (Homo sapiens, UniProt Q99683); test: KinomeScan; assay type: binding; conditions: read-out: % control
T13 construct: purchased DiscoveRx KINOMEscan

[15] = biological target: T14, CLK1 (Homo sapiens, UniProt P49759); test: KinomeScan; assay type: binding; conditions: read-out: % control
T14 construct: purchased DiscoveRx KINOMEscan
T14 sequence (P49759 whole entry): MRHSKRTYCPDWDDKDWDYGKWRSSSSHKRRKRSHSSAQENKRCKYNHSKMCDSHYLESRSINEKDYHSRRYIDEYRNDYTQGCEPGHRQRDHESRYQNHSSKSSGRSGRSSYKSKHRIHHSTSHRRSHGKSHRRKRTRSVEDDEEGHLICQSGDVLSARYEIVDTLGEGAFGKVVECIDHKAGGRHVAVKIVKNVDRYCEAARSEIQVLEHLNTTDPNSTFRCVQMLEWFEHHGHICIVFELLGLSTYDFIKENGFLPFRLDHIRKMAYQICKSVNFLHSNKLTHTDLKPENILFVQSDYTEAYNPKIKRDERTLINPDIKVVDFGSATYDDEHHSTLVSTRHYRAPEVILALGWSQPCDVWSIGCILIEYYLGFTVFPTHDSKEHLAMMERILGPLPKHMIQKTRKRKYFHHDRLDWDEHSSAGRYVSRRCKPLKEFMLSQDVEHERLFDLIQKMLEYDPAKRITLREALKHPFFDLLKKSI

[16] = biological target: T15, CSNK1G1 (Homo sapiens, UniProt Q9HCP0); test: KinomeScan; assay type: binding; conditions: read-out: % control
T15 construct: purchased DiscoveRx KINOMEscan
T15 sequence (Q9HCP0 whole entry): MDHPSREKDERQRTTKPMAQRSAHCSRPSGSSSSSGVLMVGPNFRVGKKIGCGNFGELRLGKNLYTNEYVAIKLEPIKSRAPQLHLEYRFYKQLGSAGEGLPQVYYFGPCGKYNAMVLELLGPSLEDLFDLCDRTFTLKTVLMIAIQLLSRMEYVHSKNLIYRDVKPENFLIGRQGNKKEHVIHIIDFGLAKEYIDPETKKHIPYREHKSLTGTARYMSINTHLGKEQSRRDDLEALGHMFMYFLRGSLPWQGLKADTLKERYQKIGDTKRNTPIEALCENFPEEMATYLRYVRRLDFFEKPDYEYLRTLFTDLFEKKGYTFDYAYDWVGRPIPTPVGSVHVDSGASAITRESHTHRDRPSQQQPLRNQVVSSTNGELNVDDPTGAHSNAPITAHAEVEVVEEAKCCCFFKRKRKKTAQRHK

[17] = biological target: T16, ERBB4 (Homo sapiens, UniProt Q15303); test: KinomeScan; assay type: binding; conditions: read-out: % control
T16 construct: purchased DiscoveRx KINOMEscan

[18] = biological target: T17, NEK5 (Homo sapiens, UniProt Q6P3R8); test: KinomeScan; assay type: binding; conditions: read-out: % control
T17 construct: purchased DiscoveRx KINOMEscan
T17 sequence (Q6P3R8 whole entry): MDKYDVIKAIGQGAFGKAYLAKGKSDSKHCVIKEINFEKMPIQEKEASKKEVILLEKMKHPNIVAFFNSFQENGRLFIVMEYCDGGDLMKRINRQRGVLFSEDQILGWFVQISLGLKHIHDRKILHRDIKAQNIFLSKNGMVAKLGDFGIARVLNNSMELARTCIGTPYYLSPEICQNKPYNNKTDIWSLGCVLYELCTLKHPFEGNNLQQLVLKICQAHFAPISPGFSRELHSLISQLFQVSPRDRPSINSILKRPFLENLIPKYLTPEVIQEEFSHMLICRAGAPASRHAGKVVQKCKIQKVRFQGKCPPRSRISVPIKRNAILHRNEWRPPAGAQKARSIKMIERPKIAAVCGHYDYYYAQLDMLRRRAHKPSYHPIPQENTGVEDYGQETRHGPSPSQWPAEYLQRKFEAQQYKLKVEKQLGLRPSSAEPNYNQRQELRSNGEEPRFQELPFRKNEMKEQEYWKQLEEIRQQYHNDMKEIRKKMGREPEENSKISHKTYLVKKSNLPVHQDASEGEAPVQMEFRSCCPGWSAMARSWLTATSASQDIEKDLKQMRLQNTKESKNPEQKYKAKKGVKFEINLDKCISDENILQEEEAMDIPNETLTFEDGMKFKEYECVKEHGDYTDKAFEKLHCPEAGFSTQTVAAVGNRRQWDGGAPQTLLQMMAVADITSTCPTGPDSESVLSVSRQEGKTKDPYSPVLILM

[19] = biological target: T18, PRKCQ (Homo sapiens, UniProt Q04759); test: KinomeScan; assay type: binding; conditions: read-out: % control
T18 construct: purchased DiscoveRx KINOMEscan
T18 sequence (Q04759 whole entry): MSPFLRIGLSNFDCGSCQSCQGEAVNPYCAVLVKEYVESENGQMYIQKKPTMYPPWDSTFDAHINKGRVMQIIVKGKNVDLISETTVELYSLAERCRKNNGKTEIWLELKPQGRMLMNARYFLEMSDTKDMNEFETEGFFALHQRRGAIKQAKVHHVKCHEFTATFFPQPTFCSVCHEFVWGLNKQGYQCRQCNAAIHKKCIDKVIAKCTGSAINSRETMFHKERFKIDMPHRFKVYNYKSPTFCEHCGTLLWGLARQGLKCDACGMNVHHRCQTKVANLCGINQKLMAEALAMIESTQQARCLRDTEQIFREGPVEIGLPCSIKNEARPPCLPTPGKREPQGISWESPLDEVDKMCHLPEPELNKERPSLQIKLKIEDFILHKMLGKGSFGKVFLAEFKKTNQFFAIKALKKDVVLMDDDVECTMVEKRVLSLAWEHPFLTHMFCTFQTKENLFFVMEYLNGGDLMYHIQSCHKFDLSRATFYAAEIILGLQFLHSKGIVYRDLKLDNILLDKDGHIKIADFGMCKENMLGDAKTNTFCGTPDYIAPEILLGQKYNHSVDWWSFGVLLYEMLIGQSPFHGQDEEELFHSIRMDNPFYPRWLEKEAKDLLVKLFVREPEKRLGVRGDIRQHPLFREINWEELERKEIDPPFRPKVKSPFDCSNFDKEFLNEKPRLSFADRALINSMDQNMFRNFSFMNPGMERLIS

[20] = biological target: T19, CSNK1A1 (Homo sapiens, UniProt P48729); test: KinomeScan; assay type: binding; conditions: read-out: % control
T19 construct: purchased DiscoveRx KINOMEscan
T19 sequence (P48729 whole entry): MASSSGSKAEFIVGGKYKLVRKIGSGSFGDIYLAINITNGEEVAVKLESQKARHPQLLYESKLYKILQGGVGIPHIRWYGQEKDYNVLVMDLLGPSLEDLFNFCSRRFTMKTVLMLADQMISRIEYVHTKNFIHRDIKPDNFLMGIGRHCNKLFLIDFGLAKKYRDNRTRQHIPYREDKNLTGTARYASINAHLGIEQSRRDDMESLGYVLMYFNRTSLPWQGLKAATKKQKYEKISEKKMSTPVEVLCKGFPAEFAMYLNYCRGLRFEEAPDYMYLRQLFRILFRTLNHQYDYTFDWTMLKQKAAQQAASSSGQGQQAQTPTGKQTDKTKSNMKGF

Compound: C=CC(=O)N1CCC[C@@H](n2nc(-c3ccc(OCc4cccc(C)n4)c(Cl)c3)c3c(N)ncnc32)C1 [CHMFL-EGFR-26]
- remaining binding at 1 µM [1]: 100%
- remaining binding at 1 µM [2]: 81%
- remaining binding at 1 µM [3]: 100%
- remaining binding at 1 µM [4]: 77%
- IC50 ([5]; Parental BaF3, Supplementary Table 3, read-out: IC50 (anti-proliferative)): 9 µM
- GI50 ([5]; Parental BaF3, 72 hours, triplet testing): > 10 µM
- remaining binding at 1 µM [6]: 79%
- remaining binding at 1 µM [7]: 100%
- remaining binding at 1 µM [8]: 100%
- remaining binding at 1 µM [9]: 12%
- remaining binding at 1 µM [10]: 94%
- remaining binding at 1 µM [11]: 90%
- remaining binding at 1 µM [12]: 97%
- remaining binding at 1 µM [13]: 55%
- remaining binding at 1 µM [14]: 97%
- remaining binding at 1 µM [15]: 94%
- remaining binding at 1 µM [16]: 87%
- remaining binding at 1 µM [17]: 0.45%
- remaining binding at 1 µM [18]: 93%
- remaining binding at 1 µM [19]: 57%
- remaining binding at 1 µM [20]: 100%
